{"source": "ChEMBL document CHEMBL1150526", "about": "“Isolation and X-ray crystal structure of racemic Xestospongin D from the Singapore marine sponge Niphates sp1” (1996)", "type_in_all_cases": "functional", "key": {"Leukemia cell": {"test_system": "Leukemia cell", "test": "Compound was evaluated for its activity to inhibit growth of human leukemia cancer cell line"}, "P388": {"test_system": "P388", "test": "Compound was evaluated for its activity to inhibit growth of murine P388 lymphocytic leukemia", "details": "Mus musculus, read-out: ED50 (the source's name)"}, "Breast cancer cell line": {"test_system": "Breast cancer cell line", "test": "Compound was evaluated for its activity to inhibit growth of human breast cancer cell line"}, "Micrococcus luteus": {"test_system": "Micrococcus luteus", "test": "Compound was evaluated for the inhibition of growth of Micrococcus luteus; (12.5-25 ug/disk)"}}}
{"compound": "O[C@@]12CCCCCC[C@H]3CCN4CCC[C@H](CCCCCC[C@H]5CCN(CCC1)[C@@H]2O5)[C@H]4O3", "note": "[XESTOSPONGIN D]", "values": [{"measurement": "GI50", "setting": "Leukemia cell", "result": 3.62, "unit": "µM"}, {"measurement": "EC50", "setting": "P388", "result": 1.7, "unit": "µg/mL"}, {"measurement": "GI50", "setting": "Breast cancer cell line", "result": 4.53, "unit": "µM"}, {"measurement": "MIC", "setting": "Micrococcus luteus", "result": 25, "unit": "ug disk-1"}]}
